The source of these data is ChEMBL document CHEMBL1201862, “PubChem BioAssay data set” (2004).

Structures are written as SMILES. Active and inactive are the calls of the source.

The nature of assay [1]: viability of uninfected HEp-2 cells – cell-based, HTS, cytotoxicity control for RSV inhibitor project, dose response (AID 2410). The assay is classed as functional. Conditions: human respiratory syncytial virus.
For assay [2], the system named is Vero. In words: inhibition of WNV-induced cytopathic effect – cell-based, CPE readout (AID 1621). The assay is classed as functional. The note with it: Chlorocebus sabaeus. (Cytopathic effects are the visible damage that an infection or toxin causes in cultured cells.)
The subject of assay [3] is Vero. In words: cells. Conditions: Chlorocebus sabaeus. The assay is classed as functional, cell-based.
For assay [4], the system named is Vero. In words: mammalian cell viability reduction – secondary assay, cytotoxicity control for West Nile virus antiviral project, dose response (AID 1650). The assay is classed as functional. The note with it: Chlorocebus sabaeus.
Assay [5] can be described thus: cells.
Assay [6] addresses Diphosphomevalonate decarboxylase (Streptococcus pneumoniae serotype 2 (strain D39 / NCTC 7466), UniProt Q9FD53). Description: diphosphomevalonate decarboxylase inhibitor confirmation – biochemical, cuvette format, coupled NADH fluorescence (AID 1028). The assay is classed as functional.
Assay [7] can be described thus: Luminescence Cell-Based Dose Retest to Confirm Inhibitors of Cancer Stem Cells. [Related pubchem assays (depositor defined):AID2717, AID2721]. The assay is classed as functional. The note with it: Homo sapiens.
Assay [8] can be described thus: NIH3T3 cell viability loss – ATP luminescence, mouse fibroblasts, counter-screen, dose response (AID 2010).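 Note: cells exposed to compound for about 90 hours before reading.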 The assay is classed as functional, cell-based.
Assay [9] is described as follows: Luminescent dose response cell-based high throughput screening assay for inhibitors of the Janus kinase 2 mutant JAK2V617F. [Related pubchem assays: 1446 (Primary screen.), 1521 (Confirmation assay.), 1486 (Counter screen.)]. The assay is classed as functional.
A short description of assay [10]: Trypanosoma cruzi growth suppression in host cells – NIH3T3 host cells, beta-gal luminescence, confirmation (AID 2044).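 Note: intracellular parasites grown in NIH/3T3 mouse fibroblasts as host cells; luminescent beta-galactosidase reporter signal from transgenic T. cruzi replicating inside host cells; inhibitors lower the luminescence signal.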 The assay is classed as functional, cell-based.
Assay [11] has as its target DNA repair and recombination protein RAD54-like (Homo sapiens, UniProt Q92698). Description: RAD54 Holliday junction migration blockers – biochemical, fluorescence, cherry-picked samples, dose series, confirmation (AID 651657). The assay is classed as functional.
A short description of assay [12]: M. tuberculosis growth inhibition, HTS (AID 449762). The assay is classed as functional.
In assay [13] the target is T1, Protein RecA (Mycobacterium tuberculosis, UniProt P9WHJ3).
T1 sequence (P9WHJ3 whole entry): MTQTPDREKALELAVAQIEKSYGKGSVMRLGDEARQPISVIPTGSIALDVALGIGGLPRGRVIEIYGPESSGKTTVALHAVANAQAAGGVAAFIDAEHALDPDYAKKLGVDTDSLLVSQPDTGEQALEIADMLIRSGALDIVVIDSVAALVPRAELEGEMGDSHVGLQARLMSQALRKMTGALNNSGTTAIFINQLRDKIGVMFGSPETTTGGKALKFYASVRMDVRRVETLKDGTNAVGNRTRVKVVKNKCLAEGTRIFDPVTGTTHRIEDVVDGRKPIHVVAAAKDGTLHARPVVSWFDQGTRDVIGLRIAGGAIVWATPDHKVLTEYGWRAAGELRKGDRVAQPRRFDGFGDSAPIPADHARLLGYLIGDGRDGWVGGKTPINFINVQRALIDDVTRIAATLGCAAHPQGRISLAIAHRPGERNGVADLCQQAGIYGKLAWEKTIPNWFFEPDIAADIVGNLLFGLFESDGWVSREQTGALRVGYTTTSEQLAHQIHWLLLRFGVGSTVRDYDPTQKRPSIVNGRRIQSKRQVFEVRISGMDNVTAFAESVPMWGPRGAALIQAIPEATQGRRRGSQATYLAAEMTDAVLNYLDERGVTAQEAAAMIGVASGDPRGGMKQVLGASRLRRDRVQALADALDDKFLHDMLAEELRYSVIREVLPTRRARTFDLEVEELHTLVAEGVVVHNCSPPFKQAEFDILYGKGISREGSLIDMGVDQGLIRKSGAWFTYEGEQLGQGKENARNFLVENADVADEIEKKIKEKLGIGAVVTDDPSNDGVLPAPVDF
Description: Fluorescence Cell-Free Homogeneous Dose Retest to Identify Inhibitors of RecA-Intein Splicing Activity. [Related pubchem assays (depositor defined):AID2097, AID2223, AID489010, AID492950]. The assay is classed as functional.

Assay [14] has as its target T2, Mannose-6-phosphate isomerase (Homo sapiens, UniProt P34949).
T2 sequence (P34949 whole entry): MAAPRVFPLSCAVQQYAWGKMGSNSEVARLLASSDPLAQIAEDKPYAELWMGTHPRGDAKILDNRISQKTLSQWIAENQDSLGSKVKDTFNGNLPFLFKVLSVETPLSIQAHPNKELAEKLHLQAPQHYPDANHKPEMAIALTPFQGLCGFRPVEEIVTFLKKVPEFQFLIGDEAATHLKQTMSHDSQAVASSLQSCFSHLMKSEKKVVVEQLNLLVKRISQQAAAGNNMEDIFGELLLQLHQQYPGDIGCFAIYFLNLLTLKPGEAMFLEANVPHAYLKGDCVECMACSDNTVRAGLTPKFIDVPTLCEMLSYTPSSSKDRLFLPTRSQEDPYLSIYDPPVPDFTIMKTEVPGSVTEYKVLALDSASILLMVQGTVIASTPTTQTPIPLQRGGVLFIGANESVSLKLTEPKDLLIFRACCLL
Description: MPI inhibition at elevated mannose 6-phosphate – biochemical, fluorescence intensity, high mannose 6-phosphate, primary screen (AID 1220).

Assay [15] concerns the target T3, Replicative DNA helicase DnaB (Mycobacterium tuberculosis, UniProt P9WMR3).
T3 sequence (P9WMR3 whole entry): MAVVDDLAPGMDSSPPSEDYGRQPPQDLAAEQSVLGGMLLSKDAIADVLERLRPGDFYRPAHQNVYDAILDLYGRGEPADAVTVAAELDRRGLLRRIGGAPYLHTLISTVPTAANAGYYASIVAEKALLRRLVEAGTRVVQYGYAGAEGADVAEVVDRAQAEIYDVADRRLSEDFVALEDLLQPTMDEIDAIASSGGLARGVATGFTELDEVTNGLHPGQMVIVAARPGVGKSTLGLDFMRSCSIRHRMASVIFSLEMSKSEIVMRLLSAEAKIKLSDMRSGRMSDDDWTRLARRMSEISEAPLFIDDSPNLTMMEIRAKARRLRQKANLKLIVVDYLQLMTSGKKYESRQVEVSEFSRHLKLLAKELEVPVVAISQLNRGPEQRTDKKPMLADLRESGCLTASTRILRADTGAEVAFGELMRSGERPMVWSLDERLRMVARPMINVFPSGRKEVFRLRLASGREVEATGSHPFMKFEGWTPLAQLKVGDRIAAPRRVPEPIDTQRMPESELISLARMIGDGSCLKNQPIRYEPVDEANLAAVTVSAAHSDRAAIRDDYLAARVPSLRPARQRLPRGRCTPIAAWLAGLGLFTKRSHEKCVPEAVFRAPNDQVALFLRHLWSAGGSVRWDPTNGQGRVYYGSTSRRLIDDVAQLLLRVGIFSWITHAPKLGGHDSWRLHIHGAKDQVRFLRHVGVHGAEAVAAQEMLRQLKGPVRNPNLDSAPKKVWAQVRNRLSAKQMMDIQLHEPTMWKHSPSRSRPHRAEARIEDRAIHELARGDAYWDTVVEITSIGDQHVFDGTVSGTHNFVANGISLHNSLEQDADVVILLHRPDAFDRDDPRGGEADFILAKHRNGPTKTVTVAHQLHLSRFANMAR
In words: DnaB intein splicing inhibitors, dose response, biochemical, cell-free fluorescence (AID 449749). The assay is classed as functional.

Assay [16] concerns the target T4, High affinity choline transporter 1 (Homo sapiens, UniProt Q9GZV3).
T4 sequence (Q9GZV3 whole entry): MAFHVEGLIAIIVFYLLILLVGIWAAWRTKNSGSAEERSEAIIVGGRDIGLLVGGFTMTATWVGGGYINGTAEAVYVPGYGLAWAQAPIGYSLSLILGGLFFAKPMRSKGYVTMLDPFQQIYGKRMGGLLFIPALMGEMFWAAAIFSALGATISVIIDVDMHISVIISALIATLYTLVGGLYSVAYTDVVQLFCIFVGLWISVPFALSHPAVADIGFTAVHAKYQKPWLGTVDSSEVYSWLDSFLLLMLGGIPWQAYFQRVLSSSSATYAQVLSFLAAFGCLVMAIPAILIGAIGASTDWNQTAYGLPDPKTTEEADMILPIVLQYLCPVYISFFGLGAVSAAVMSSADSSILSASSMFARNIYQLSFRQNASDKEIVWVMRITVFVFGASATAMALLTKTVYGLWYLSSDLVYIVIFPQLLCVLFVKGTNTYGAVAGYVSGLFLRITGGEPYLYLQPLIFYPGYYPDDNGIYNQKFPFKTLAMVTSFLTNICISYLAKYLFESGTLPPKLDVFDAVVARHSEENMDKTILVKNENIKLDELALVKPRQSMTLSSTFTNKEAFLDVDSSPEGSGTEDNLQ
Description: human choline transporter blockers, potency – cell-based, 5-point CRC, membrane potential dye, dose response (AID 504840). The assay is classed as functional.

For assay [17], the target named is Luciferin 4-monooxygenase (Photinus pyralis, UniProt P08659). In words: inhibition of purified Photinus pyralis luciferase – biochemical, luminescence, dose response (AID 1891).
Luciferin 4-monooxygenase, sequence (P08659 whole entry): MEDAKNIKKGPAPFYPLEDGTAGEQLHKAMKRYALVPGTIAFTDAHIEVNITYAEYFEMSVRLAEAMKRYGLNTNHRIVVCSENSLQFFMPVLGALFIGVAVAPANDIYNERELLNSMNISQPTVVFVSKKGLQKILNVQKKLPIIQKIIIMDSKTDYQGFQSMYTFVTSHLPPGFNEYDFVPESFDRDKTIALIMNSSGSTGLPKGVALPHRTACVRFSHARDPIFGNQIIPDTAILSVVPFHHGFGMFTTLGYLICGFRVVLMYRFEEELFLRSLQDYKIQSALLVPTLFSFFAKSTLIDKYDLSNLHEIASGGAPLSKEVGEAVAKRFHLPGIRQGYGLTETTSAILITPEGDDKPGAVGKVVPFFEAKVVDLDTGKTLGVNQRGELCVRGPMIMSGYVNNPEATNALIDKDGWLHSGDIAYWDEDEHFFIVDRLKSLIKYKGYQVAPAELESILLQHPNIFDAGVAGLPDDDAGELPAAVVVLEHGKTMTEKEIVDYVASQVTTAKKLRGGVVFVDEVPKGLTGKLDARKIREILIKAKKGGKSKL
Assay [18] can be described thus: Luminescence Cell-Based Dose Confirmation HTS to Identify Inhibitors of Platelet Dense Granule Release. [Related pubchem assays: 1663 (Primary HTS), 1678 (Summary of Project)]. The assay is classed as functional.
A short description of assay [19]: Fluorescence Cell-Based Dose Response to Identify Inhibitors of Thrombin Receptor-Activating Peptide SFLLRN-Mediated P-Selectin Induction on Platelets. [Related pubchem assays: 1663 (Primary HTS), 1889 (retest at dose ), 1891 (counterscreen), 1678 (Project Summary)]. The assay is classed as functional. (In general: A counterscreen serves to expose hits that act by an unwanted route or on another target.)

Assay [20] concerns the target Ephrin type-A receptor 4 (Mus musculus, UniProt Q03137). Description: EphA4 ligand-binding antagonists – biochemical, colorimetric, mouse EphA4, primary screen (AID 689). The assay is classed as functional.

DNA repair and recombination protein RAD54-like, sequence (Q92698 whole entry): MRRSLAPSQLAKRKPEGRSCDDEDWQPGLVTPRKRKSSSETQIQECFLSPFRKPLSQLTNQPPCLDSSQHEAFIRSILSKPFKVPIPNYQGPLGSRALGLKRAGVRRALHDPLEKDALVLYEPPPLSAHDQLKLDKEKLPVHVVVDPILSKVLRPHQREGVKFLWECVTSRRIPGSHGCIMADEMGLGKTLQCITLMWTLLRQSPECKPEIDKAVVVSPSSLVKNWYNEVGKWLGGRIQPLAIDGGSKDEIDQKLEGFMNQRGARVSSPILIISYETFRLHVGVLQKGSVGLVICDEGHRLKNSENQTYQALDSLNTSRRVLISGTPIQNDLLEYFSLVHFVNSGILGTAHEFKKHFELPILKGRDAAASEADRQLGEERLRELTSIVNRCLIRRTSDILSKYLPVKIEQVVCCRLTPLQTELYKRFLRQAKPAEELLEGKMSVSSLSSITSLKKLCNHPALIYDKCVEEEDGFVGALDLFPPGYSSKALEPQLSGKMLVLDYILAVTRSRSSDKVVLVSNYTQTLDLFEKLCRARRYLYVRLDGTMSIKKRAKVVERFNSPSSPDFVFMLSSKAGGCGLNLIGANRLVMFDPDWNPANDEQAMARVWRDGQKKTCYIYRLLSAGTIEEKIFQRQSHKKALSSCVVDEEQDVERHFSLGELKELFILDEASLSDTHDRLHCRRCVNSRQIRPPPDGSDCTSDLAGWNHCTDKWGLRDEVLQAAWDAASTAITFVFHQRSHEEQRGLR
Diphosphomevalonate decarboxylase, sequence (Q9FD53 whole entry): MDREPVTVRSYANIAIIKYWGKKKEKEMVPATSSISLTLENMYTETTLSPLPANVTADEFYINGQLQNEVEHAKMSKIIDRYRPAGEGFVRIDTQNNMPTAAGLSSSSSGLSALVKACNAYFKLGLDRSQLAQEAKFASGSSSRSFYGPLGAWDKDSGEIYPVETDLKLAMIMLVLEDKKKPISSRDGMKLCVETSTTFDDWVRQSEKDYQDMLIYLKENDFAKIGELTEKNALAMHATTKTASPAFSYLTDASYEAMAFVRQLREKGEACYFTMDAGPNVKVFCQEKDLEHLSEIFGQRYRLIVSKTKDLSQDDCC
Ephrin type-A receptor 4, sequence (Q03137 whole entry): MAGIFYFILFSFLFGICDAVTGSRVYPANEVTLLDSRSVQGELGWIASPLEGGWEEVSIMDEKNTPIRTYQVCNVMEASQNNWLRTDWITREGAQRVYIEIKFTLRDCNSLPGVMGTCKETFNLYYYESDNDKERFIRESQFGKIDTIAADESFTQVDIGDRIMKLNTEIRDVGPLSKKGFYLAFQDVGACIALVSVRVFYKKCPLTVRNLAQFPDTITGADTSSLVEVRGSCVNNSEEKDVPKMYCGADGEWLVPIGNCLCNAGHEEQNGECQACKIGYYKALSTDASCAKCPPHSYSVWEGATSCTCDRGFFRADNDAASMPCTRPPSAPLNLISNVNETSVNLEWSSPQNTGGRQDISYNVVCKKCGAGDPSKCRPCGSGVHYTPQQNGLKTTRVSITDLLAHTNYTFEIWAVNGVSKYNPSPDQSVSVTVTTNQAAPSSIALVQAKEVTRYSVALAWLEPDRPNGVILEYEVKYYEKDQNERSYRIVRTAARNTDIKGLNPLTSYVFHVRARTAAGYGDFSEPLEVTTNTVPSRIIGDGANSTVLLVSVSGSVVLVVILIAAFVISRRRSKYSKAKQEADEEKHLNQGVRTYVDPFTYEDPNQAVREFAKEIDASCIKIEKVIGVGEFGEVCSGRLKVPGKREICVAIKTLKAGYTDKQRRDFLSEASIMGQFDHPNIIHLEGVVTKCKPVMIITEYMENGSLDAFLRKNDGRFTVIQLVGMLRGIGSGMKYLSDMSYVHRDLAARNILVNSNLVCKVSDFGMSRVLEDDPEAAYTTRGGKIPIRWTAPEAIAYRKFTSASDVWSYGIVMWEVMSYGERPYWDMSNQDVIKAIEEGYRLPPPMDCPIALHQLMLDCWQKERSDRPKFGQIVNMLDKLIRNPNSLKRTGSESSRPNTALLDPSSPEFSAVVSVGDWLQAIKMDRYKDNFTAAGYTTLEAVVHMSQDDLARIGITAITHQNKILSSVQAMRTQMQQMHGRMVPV

The CC50 is the concentration giving 50% cytotoxicity. The IC50 is the concentration at which inhibition is half-maximal. As for `COC(=O)c1c(-c2ccccc2)csc1NC(=O)c1c(-c2ccccc2)noc1C`, the CC50 in assay [1] is 6.35 µM (active); in [4], 10.1 µM (active). In addition, the IC50 in assay [2] is 41.3 µM (active); in [3] it was 0.8 µM (active); in [5], 3.07 µM (active).
`O=C(NCc1ccco1)c1ccc(-n2sc3ccccc3c2=O)cc1`: the IC50 in assay [6] was 4.68 µM (active).
As usually defined, the AC50 is the midpoint of the concentration-response curve, whichever way the signal moves. What is called EC50 is the concentration at which the effect is half-maximal. Regarding `CC1CCCN(CCCNC(=O)c2cc3c(Cl)nc4ccccc4c3s2)C1` (stereo not drawn), the AC50 is 8.01 µM (active) in assay [7] and 9.98 µM (active) in [11]. Also, the EC50 in [8] is 6.28 µM (active); in assay [10], 1.4 µM (active). The IC50 in [9] was 0.934 µM (active).
Regarding `Cc1cccc(CSc2nc3c(c(-c4cccs4)c2C#N)CN(C)CC3)c1`, the half-maximal inhibitory concentration (IC50) was > 100 µM (active) in [12] and > 50 µM (not active) in assay [14]. Further, the EC50 in assay [8] is > 60 µM (not active); in [13], 0.503 µM (active); in assay [10], 0.101 µM (active). Further, the AC50 in [15] was 16.5 µM (active).
With `COC(=O)C(C)Sc1nc2c(c(=O)[nH]c(=O)n2C)n1CCCc1ccccc1` (stereo not drawn), in assay [16], the IC50 was 12.6 µM (active). In addition, the EC50 was > 112 µM (not active) in assay [17], 6.52 µM (active) in assay [18] and < 30 µM (active) in [19].
In the case of `CCn1c(SCc2nc(-c3ccccc3)no2)nnc1-c1cccs1`, the IC50 in assay [20] was > 100 µM (not active); in [16], 15.1 µM (active).
